Measurements as given in publication PMC3324652 (2012).

Target: cannabinoid receptor type 2 (CB2) (Homo sapiens, UniProt P34972)
Assay: radioligand saturation binding

Sequence of cannabinoid receptor type 2 (CB2) (P34972 whole entry): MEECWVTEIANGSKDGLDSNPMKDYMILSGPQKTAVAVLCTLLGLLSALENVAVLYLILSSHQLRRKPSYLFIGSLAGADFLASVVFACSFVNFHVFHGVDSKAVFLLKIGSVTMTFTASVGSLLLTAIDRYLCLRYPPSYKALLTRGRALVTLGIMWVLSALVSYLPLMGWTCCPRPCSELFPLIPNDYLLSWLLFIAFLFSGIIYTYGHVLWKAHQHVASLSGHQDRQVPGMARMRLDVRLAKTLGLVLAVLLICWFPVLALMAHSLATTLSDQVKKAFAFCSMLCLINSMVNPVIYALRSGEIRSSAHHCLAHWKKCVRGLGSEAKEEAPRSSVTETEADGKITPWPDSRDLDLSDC

`CCCCOc1c(OC)ccc2cc(C(=O)NCc3ccc(F)cc3)c(=O)[nH]c12` [[18F]-14, 7-methoxy-8-butoxy-2-oxo-1,2-dihydroquinoline-3-carboxylic acid-(4-fluorobenzyl)amide] showed a Kd of 3.4 nM.
